The values that follow come from patent US10617736B2, “Method for modulating insulin-independent glucose transport using teneurin C-terminal associated peptide (TCAP)” (priority 2014, dated 2020).

What all share (format): cell-based, mouse
The test system of one experiment is C2C12 myocytes. Put plainly: 3H-2-deoxyglucose uptake in C2C12 myocytes. Conditions: 100 nM. How it is done: The effect of TCAP-1 on glucose uptake in muscle cells was examined in a C2C12 mouse myocyte cell line. C2C12 myocytes were cultured in Dulbecco's Modified Eagle Medium (DMEM) containing 4500 mg/L D-glucose, L-glutamine, and 25 mM HEPES buffer, without sodium pyruvate or phenol red (Gibco, Cat. No. 21063029), supplemented with 20% heat-inactivated fetal bovine serum (FBS), 100 U/ml penicillin and 100 μg/ml streptomycin. Cells were maintained at 80% confluency at 37° C. in a humidified CO2 incubator. To initiate differentiation, myocytes were further cultured in DMEM supplemented with 10% heat-inactivated horse serum (HS), transferrin, 100 U/ml penicillin and 100 μg/ml streptomycin. Myocytes were allowed to differentiate into multi-nucleated myotubes for 5 days before experimentation. 24 hours prior to experimentation, medium was changed. At day 5 of differentiation, cells were deprived of serum and incubated in Minimal Essential Medium containing 1000 mg/L D-glucose, L-glutamine, without nucleosides (Gibco, Cat. No. 12561049) for 5 hours at 37° C. prior to incubation with insulin, TCAP-1, or saline. Cells were washed twice in glucose-free HEPES-buffered solution (HBS), containing 140 mM NaCl, 20 mM HEPES, 5 mM KCl, 2.5 mM MgSO4 and 1 mM CaCl2, followed by determinations of transport of 3H-2-deoxyglucose for 10 minutes at 0.5 μCi/ml at room temperature. Uptake of 3H-2-deoxyglucose was stopped immediately after 10 minutes with three washes of ice-cold 0.9% NaCl solution. Parallel experiments with 5 μM of cytochalasin B were done to ensure that glucose uptake was of transporter-inhibitable transport The cells were digested with 1 ml of 0.05 N NaOH. Cell lysates were used for determination of radioactivity by a beta liquid scintillation counter. Experiments were repeated three times with 3 wells per condition per replication. […] Cell lysates were used for determination of radioactivity by a beta liquid scintillation counter. […]

For experiment [1], the system named is mHypoE-38 neurons. The experiment in a line: 3H-2-deoxyglucose uptake in mHypoE-38 hypothalamic neurons. How it is done:
The effect of TCAP-1 on glucose uptake in brain cells was examined in immortalized […] hypothalamic cells. Immortalized mHypoE-38 hypothalamic embryonic mouse neurons (gift from Dr. Denise Belsham, University of Toronto) were grown in Dulbecco's Modified Eagle Medium (DMEM) containing 4500 mg/L D-glucose, L-glutamine, and 25 mM HEPES buffer, without sodium pyruvate or phenol red (Gibco, Cat. No. 21063029), supplemented with 5% heat-inactivated fetal bovine serum (FBS), 100 U/ml penicillin and 100 μg/ml streptomycin. Cells were maintained at 60-70% confluency at 37° C. in a humidified CO2 incubator. To passage, cells were washed once in sterile PBS, trypsinized and seeded at a density of 100,000 cells per 3.5 cm plate and allowed to grow for 2-3 days. 24 hours prior to experimentation, medium was changed. mHypoE-38 hypothalamic cells were grown in 6-well tissue culture dishes (Corning Incorporated, Cat. No. 3516) at a seeding density of200 000 cells/9.5 cm^2 well in a 37° C. normoxic incubator. Cultures were grown for 36 hours to 85% confluence prior to experimentation. At day 3 post-plating, cells were washed twice with Locke's buffer (154 mM NaCl, 5.6 mM KCl, 2.3 mM CaCl2, 3.6 mM NaHCO3, 5 mM HEPES) without serum and glucose. The culture was incubated in the Locke's buffer for 1 hour at 37° C. followed by exposure to 100 nM insulin, 100 nM TCAP-1, 100 nM SC-TCAP-1, or saline. KCl (40 mM) and […] (0.5 μCi/ml) were added to culture 5 minutes before termination of treatment exposure. Uptake of ^3H-2-deoxyglucose was stopped immediately after 5 minutes with three washes of ice-cold 0.9% NaCl solution. Parallel experiments with 5 μM of cytochalasin B were performed to ensure that glucose uptake was of transporter-inhibitable transport. The cells were digested with 1 ml of 0.05 N NaOH at 0, 15, 30, 45, 60, 90 and 120 minutes after treatment. Cell lysates were used for determination of radioactivity by a beta liquid scintillation counter. Experiments were repeated three times with 3 wells pear condition per replication. […] hypothalamic cells were cultured as above and treated with 100 nM insulin, 100 nM TCAP-1 or saline, exposed to 5.6 mM or 40 mM KCl and 0.5 μCi/well 3H-2-deoxy glucose, and subsequently lysed with 50 mM NaOH. Radioactivity in cell lysates was counted using a liquid scintillation counter.

Experiment [2] has as its system mHypoE-38 neurons. Described as above. Particulars: Hypo-E38 cells, potassium-free media (FIG. 11F, G).

Consider insulin, for which the 3H-2-deoxyglucose uptake is listed as 332.321±87.296% in the experiment on C2C12 myocytes (90 minutes); 284.520±47.129% in the experiment on C2C12 myocytes (after 30 minutes); 91.423±5.226% with mHypoE-38 neurons [1] (100 nM, 5.6 mM KCl (low KCl)); 288.572±24.527% in the experiment on mHypoE-38 neurons [1] (100 nM, 40 mM KCl exposure); 108.069±13.671 with mHypoE-38 neurons [1] (cells pretreated with MEK inhibitor (U0126) for 1 hour, 40 mM KCl); 162.846±1.813 with mHypoE-38 neurons [1] (non-MEK-inhibited cells, 40 mM KCl). The “3H-2-deoxyglucose uptake value relative to baseline” value in the experiment with mHypoE-38 neurons [1] (100 nM, 40 mM KCl, 45 minutes) was 253±21.38%. Moreover, in the experiment on mHypoE-38 neurons [1] (Hypo-E38 cells (FIG. 11C-E)), the “3HDG uptake in whole cells over time” value is “uptake in 3HDGlucose within 30 min and remained high until after 60 min”. Also, the “3HDG uptake in potassium-free media” value with mHypoE-38 neurons [2] was “decreased insulin-dependent glucose uptake to baseline levels”.
